Data reported in article PMC11677527, “Predicting Pharmacokinetics of Active Constituents in Spatholobi caulis by Using Physiologically Based Pharmacokinetic Models” (Pharmaceuticals, 2024).
Read-outs that look alike come from different tables or passages of the source.

How the values were obtained:
[1] = Observed pharmacokinetics in rats after oral SPC (previous study); assay type: in vivo, rat; details: p.o. SPC
[2] = parameters: method as in PMID 34303214; details: rats, p.o. SPC 30 g crude drug/kg; doses of 1-4: 0.062, 0.11, 0.71, 1.31 mg/kg; cited from earlier work
[3] = system: Caco-2 cell monolayer; parameters: method as in PMID 36680806, PMID 26501241; details: Caco-2 cell monolayer model; cited from earlier work
[4] = Verification pharmacokinetic experiment in rats, SPC 60 g crude drug/kg by gavage, UFLC-MS/MS, DAS 2.0; assay type: in vivo, rat
Description: To validate the accuracy of PBPK models in predicting the pharmacokinetics of SPC constituents at different oral doses, the pharmacokinetic behavior of these four constituents from SPC in rats were analyzed by UFLC-MS/MS. The parameters were calculated using Drug and Statistics Software version 2.0, and then these validated values (Val.) were used to check the accuracy of the Calc. values and evaluated by FE.
The pharmacokinetic fitting results of rats given 60 g crude drug/kg body weight of SPC by gavage were verified by experiments. The verification experiment was conducted according to our previous pharmacokinetic study. In brief, 1.5 mL suspension of SPC was given to rats by oral administration; 300 μL blood samples from orbital venous at 0.083, 0.25, 0.5, 0.75, 1.0, 1.5, 2, 3, 4, 6, 8, and 12 h were collected and pretreated with heparin sodium. After centrifugation, the plasma samples were obtained and further processed for subsequent detection by UFLC-MS/MS; the detailed analysis method is shown in Supplementary Data (Table S1 and Figure S1). The concentration-time curve of each compound was gained, and the pharmacokinetic parameters were calculated using DAS 2.0 software (DAS 2.0, Mathematical Pharmacology Professional Committee of China, Shanghai, China). The results of these four constituents were compared with the PBPK parameters predicted in rats at an oral dose of 60 g crude drug/kg body weight of SPC.
1. The instrument and analytical conditions of UFLC-MS/MS method
4 constituents (1. 3′-methoxydadizein; 2. 8-O-methylretusin; 3. Daidzin; and 4. […]
The internal standard (IS) carbamazepine with a purity of more than 99 % was purchased from Beijing JK-chemical technology Co. Ltd., (Beijing China). Heparin sodium was gained from Tianjin biochemical pharmaceutical Co. Ltd, (Tianjin, China).
Ammonium acetate of HPLC grade, methanol and acetonitrile of LC-MS grade were purchased from Sigma (LOT# BCBK6717V, sigma-aldrich, Co., MO, USA) and Fisher (Fisher Corp., Fair lawn, NJ, USA) respectively. The experimental ultrapure water was prepared by Millipore Milli-Q ultrapure water preparation apparatus (Millipore Sigma, […]
The detailed information of Shimadzu UFLC-MS/MS 8050 liquid mass system equipped with Nexera X2UFLC liquid chromatography system and 8050 triple quadrupole mass spectrometers with an electrospray ionization source were listed in our previous study. The supporting LabSolution workstation was used for data […]
The separation without superposition of analytes in plasma sample was achieved on a Kinetex® C18 chromatographic column (100mm×2.1mm i.d.; 2.6 μm, 100 Å; Phenomenex, Inc., Torrance, CA, USA) assembled with a Phenomenex p/n AJ0-9000 C18 protection column. The mobile phase was consisted of 0.5 mM ammonium acetate in water (A) and ACN (B). The gradient elution program was selected ultimately as […]
95 % B (18.7–22 min). Column and automatic sampler temperature were set as 30 °C and 4 °C respectively. The flow rate of mobile phase was 0.35 mL/min while sample injection volume was 4 μL.
Multiple reaction monitoring (MRM) of positive or negative modes were used as scanning modes for the analytes and IS. Other essential parameters were successively optimized as: Nebulizing gas flow, 3 L/min; Heating gas flow, 10 L/min; Drying gas flow, 10 L/min; Interface temperature, 300 °C; DL temperature, 250 °C; Interface and detector voltage were each set as 3.0 kV and 1.8 kV. The detection parameters such as retention time (RT), dwell time (DT), quadrupole 1 pre-rod bias (Q1), collision energy […]
Table S1 The retention time and ion equivalent parameters of 4 constituents in rat […]
Constituents Retention Precursor Precursor Product time Pre energy Pre time (min) ion species ion ion (msec) Bias (V) Bias

[5] = compartment model parameters, DAS 2.0, rats p.o. SPC 60 g crude drug/kg, Mean, 5 rats
[6] = statistical moment parameters, DAS 2.0, rats p.o. SPC 60 g crude drug/kg, Mean, 5 rats
[7] = statistical moment parameters, DAS 2.0, rats p.o. SPC 60 g crude drug/kg, Mean, 5 rats, in µg·h²/mL

For `COc1ccc(-c2coc3c(OC)c(O)ccc3c2=O)cc1` [Constituent 2, 8-O-methylretusin], the “time of slight secondary absorption peak” value [1] is given as 3 h, the “AUC0→t Obs.” value [2] is given as 9.7 ng·h/mL and the “AUC0→∞ Obs.” value [2] is given as 0.0115 µg·h/mL. The “Cmax Obs.” value [2] was 0.0136 µg/mL, the Papp [3] was 2.48e-05 cm/s and the K10 [4, 5] was 6.671 h⁻¹. It also gave a K12 [4, 5] of 0.394 h⁻¹, a K21 [4, 5] of 0.474 h⁻¹ and a Ka [4, 5] of 2.056 h⁻¹. The Tlag [4, 5] was 0 h, the V1/F [4, 5] was 12.043 L/kg and the t1/2Ka [4, 5] was 20.246 h. For the same compound, the t1/2α [4, 5] was 34.861 h, the concentration at 0.083 h ([4]; rat, plasma, oral, time 0.083 h, rats p.o. SPC 60 g crude drug/kg, doses of 1-4: 0.124, 0.22, 1.4, 2.62 mg/kg, 5 rats) was 9 ng/mL and the concentration at 0.25 h ([4]; rat, plasma, oral, time 0.25 h, rats p.o. SPC 60 g crude drug/kg, doses of 1-4: 0.124, 0.22, 1.4, 2.62 mg/kg, 5 rats) was 22.9 ng/mL. The concentration at 0.5 h ([4]; rat, plasma, oral, time 0.5 h, rats p.o. SPC 60 g crude drug/kg, doses of 1-4: 0.124, 0.22, 1.4, 2.62 mg/kg, 5 rats) was 12.3 ng/mL, the concentration at 0.75 h ([4]; rat, plasma, oral, time 0.75 h, rats p.o. SPC 60 g crude drug/kg, doses of 1-4: 0.124, 0.22, 1.4, 2.62 mg/kg, 5 rats) was 5.23 ng/mL and the concentration at 1 h ([4]; rat, plasma, oral, time 1 h, rats p.o. SPC 60 g crude drug/kg, doses of 1-4: 0.124, 0.22, 1.4, 2.62 mg/kg, 5 rats) was 3.33 ng/mL. It also gave a concentration at 1.5 h ([4]; rat, plasma, oral, time 1.5 h, rats p.o. SPC 60 g crude drug/kg, doses of 1-4: 0.124, 0.22, 1.4, 2.62 mg/kg, 5 rats) of 1.97 ng/mL, a concentration at 2 h ([4]; rat, plasma, oral, time 2 h, rats p.o. SPC 60 g crude drug/kg, doses of 1-4: 0.124, 0.22, 1.4, 2.62 mg/kg, 5 rats) of 0.809 ng/mL and a concentration at 3 h ([4]; rat, plasma, oral, time 3 h, rats p.o. SPC 60 g crude drug/kg, doses of 1-4: 0.124, 0.22, 1.4, 2.62 mg/kg, 5 rats) of 0.809 ng/mL. For the same compound, the concentration at 4 h ([4]; rat, plasma, oral, time 4 h, rats p.o. SPC 60 g crude drug/kg, doses of 1-4: 0.124, 0.22, 1.4, 2.62 mg/kg, 5 rats) was 0.409 ng/mL, the concentration at 6 h ([4]; rat, plasma, oral, time 6 h, rats p.o. SPC 60 g crude drug/kg, doses of 1-4: 0.124, 0.22, 1.4, 2.62 mg/kg, 5 rats) was 0.445 ng/mL and the concentration at 8 h ([4]; rat, plasma, oral, time 8 h, rats p.o. SPC 60 g crude drug/kg, doses of 1-4: 0.124, 0.22, 1.4, 2.62 mg/kg, 5 rats) was 0.161 ng/mL. For the same compound, the AUC(0-t) ([4]; rat, plasma, po, 0.22 mg/kg, compartment model parameters, DAS 2.0, rats p.o. SPC 60 g crude drug/kg, Mean, 5 rats, read-out: AUC(0-t)) was 19.8 ng·h/mL, the AUC(0-inf) ([4]; rat, plasma, po, 0.22 mg/kg, compartment model parameters, DAS 2.0, rats p.o. SPC 60 g crude drug/kg, Mean, 5 rats, read-out: AUC(0-∞)) was 22.4 ng·h/mL and the CL/F ([4]; rat, plasma, po, 0.22 mg/kg, compartment model parameters, DAS 2.0, rats p.o. SPC 60 g crude drug/kg, Mean, 5 rats, read-out: CL/F (converted)) was 209 mL/min/kg. For the same compound, the half-life ([4]; rat, plasma, po, 0.22 mg/kg, compartment model parameters, DAS 2.0, rats p.o. SPC 60 g crude drug/kg, Mean, 5 rats, read-out: t1/2β (converted)) was 2130 min, the AUC(0-t) ([4]; rat, plasma, po, 0.22 mg/kg, statistical moment parameters, DAS 2.0, rats p.o. SPC 60 g crude drug/kg, Mean, 5 rats, read-out: AUC(0-t)) was 15.3 ng·h/mL and the AUC(0-inf) ([4]; rat, plasma, po, 0.22 mg/kg, statistical moment parameters, DAS 2.0, rats p.o. SPC 60 g crude drug/kg, Mean, 5 rats, read-out: AUC(0-∞)) was 15.5 ng·h/mL. It also gave a CL/F ([4]; rat, plasma, po, 0.22 mg/kg, statistical moment parameters, DAS 2.0, rats p.o. SPC 60 g crude drug/kg, Mean, 5 rats, read-out: CLz/F (converted)) of 238 mL/min/kg, a Cmax ([4]; rat, plasma, po, 0.22 mg/kg, statistical moment parameters, DAS 2.0, rats p.o. SPC 60 g crude drug/kg, Mean, 5 rats, read-out: Cmax) of 25.3 ng/mL and an MRT last ([4]; rat, plasma, po, 0.22 mg/kg, statistical moment parameters, DAS 2.0, rats p.o. SPC 60 g crude drug/kg, Mean, 5 rats, read-out: MRT(0-t)) of 1.01 h. For the same compound, the MRT inf ([4]; rat, plasma, po, 0.22 mg/kg, statistical moment parameters, DAS 2.0, rats p.o. SPC 60 g crude drug/kg, Mean, 5 rats, read-out: MRT(0-∞)) was 1.3 h, the Tmax ([4]; rat, plasma, po, 0.22 mg/kg, statistical moment parameters, DAS 2.0, rats p.o. SPC 60 g crude drug/kg, Mean, 5 rats, read-out: Tmax) was 15 min and the Vd/F ([4]; rat, plasma, po, 0.22 mg/kg, statistical moment parameters, DAS 2.0, rats p.o. SPC 60 g crude drug/kg, Mean, 5 rats, read-out: Vz/F) was 22.1 L/kg. For the same compound, the half-life ([4]; rat, plasma, po, 0.22 mg/kg, statistical moment parameters, DAS 2.0, rats p.o. SPC 60 g crude drug/kg, Mean, 5 rats, read-out: t1/2z (converted)) was 64 min, the AUC(0-t) ([4]; rat, plasma, po, 2.62 mg/kg, rats, p.o. SPC 60 g crude drug/kg, doses of 1-4: 0.124, 0.22, 1.42, 2.62 mg/kg, n = 5, read-out: AUC0→t Val.) was 15.3 ng·h/mL and the AUC(0-inf) ([4]; rat, plasma, po, 2.62 mg/kg, rats, p.o. SPC 60 g crude drug/kg, doses of 1-4: 0.124, 0.22, 1.42, 2.62 mg/kg, n = 5, read-out: AUC0→∞ Val.) was 15.5 ng·h/mL. For the same compound, the Tmax ([4]; rat, plasma, po, rats, p.o. SPC 60 g crude drug/kg, doses of 1-4: 0.124, 0.22, 1.42, 2.62 mg/kg, n = 5, read-out: Tmax Val.) was 15 min, the Cz [4, 6] was 0.107 µg/L and the “VRT(0-t)” value [4, 6] was 1.65 h^2. The “VRT(0-∞)” value [4, 6] was 3.316 h^2, the elimination rate constant [4, 6] was 0.675 h⁻¹ and the “AUMC(0-t)” value [4, 7] was 15.37. For the same compound, the “AUMC(0-∞)” value [4, 7] was 20.163.
